A melting point compilation (Tetko et al.; mined from patent text by program, amines drawn as free bases though some values may be those of a salt)
Residues, ends and D or L forms follow the SMILES beside them.

Structure (SMILES)	melting point [°C]
CCNC(=O)c1ccsc1[Si](C)(C)C	114 to 116
COC(=O)CCc1ccc(CNC(=O)C2Cc3ccccc3N2S(=O)(=O)c2ccc(-c3cccc(C(F)(F)F)c3)cc2)cc1 (centres undefined)	61
Cc1cccc(C)c1CS(=O)(=O)NCCc1c(CCCc2ccc(C(=O)O)cc2)c2cc(Cl)ccc2n1C(c1ccccc1)c1ccccc1	193
CCOC(=O)C1=C(C)Nc2c(c(C)nn2C)C1c1ccccc1[N+](=O)[O-] (centres undefined)	194 to 198
O=S1(=O)NC(C2CCCC2)Nc2ccc(S(=O)(=O)N3CCCCC3)cc21 (centres undefined)	258 to 260
Cn1ccnc1Sc1ccc2[nH]nc(Nc3nccs3)c2c1	> 250
CCOC(=O)c1ccc(OCCc2c[nH]cn2)cc1	160 to 164
O=[N+]([O-])c1cc2c(c([N+](=O)[O-])c1)CCCC2	93
NC(=O)CC(NC(=O)C(N)CO)C(=O)NC(Cc1ccccc1)C(N)=O (stereo not drawn) (H-Ser-Asn-Phe-NH2; configuration not given here)	169 to 172
CN(C)c1ccc(CNC(=O)C(Cc2ccccc2)NC(=O)Nc2ccc(C(=N)N)cc2)cc1 (centres undefined)	147
OCC#Cc1ccc(Br)cn1	121 to 122
Nc1ncccc1OCc1c(Cl)cccc1Cl	141 to 142
CC(=O)N(C)c1cccc(-c2ccc(Cl)nn2)c1	118 to 120
O=C(c1ccccc1)C(CCCCl)c1ccccc1 (centres undefined)	72 to 74
Cc1nc(N2CCc3nc(N)sc3CC2)c([N+](=O)[O-])c(=O)[nH]1	> 200
O=C1Nc2ccccc2N2CCN(c3ccccc3)CCN12	198 to 199
CC1Cc2cccc(S(N)(=O)=O)c2O1 (centres undefined)	174 to 177
CON=C(C#CC(=O)c1ccc(Cl)cc1)C(=O)OC	172 to 173
CCCCCCCCCCOc1ccc2cc(C#CC(C)OC(=O)CC)ccc2c1 (centres undefined)	74 to 75
Clc1ccc(Nc2nc3ccccc3c3c2ncn3-c2ccco2)cc1Cl	135 to 138
CCN1CCN([C@](O)(CNC(=O)c2ccc(OCc3cc(C)nc4ccccc34)cc2)C(N)=O)CC1	184
O=C(O)COc1cccc2c(CNC(=O)COc3ccccc3)coc12	156 to 157
CCCN(CCC)S(=O)(=O)c1cc(-c2csc(=Nc3ccccc3C)n2C)ccc1Cl	114 to 116
CCCCCC(=O)C=P(c1ccccc1)(c1ccccc1)c1ccccc1	54 to 56
Cn1c([N+](=O)[O-])cnc1C=O	90 to 94

Structure (SMILES)	melting point [°C]
O=C(Nc1cccc(-n2nc(C(F)(F)F)cc2C(F)(F)F)c1)c1cccc(Cl)c1Cl	119 to 121
CC(C)[Si](Oc1ccc2c(c1)OCC(N1CCC(O)(c3ccccc3)CC1)C2=O)(C(C)C)C(C)C (centres undefined)	132
CCCOCCOC(=O)C1=C(C)NC(C)=C(S(=O)(=O)NC(C)C)C1c1cccc([N+](=O)[O-])c1 (centres undefined)	155 to 158
CCOC(=O)c1cc(C(=O)OC)c(CCN2C(=O)c3ccccc3C2=O)o1	122 to 123
CC(C)Oc1ccc(Nc2ccc(N=C=O)cc2C(F)(F)F)cc1C(F)(F)F	102 to 105
CC(=O)c1ccc(C2=C(c3ccc(S(C)(=O)=O)cc3)OC3(CCCC3)C2=O)cc1	126 to 130
COc1cc(Nc2c(C#N)cnc3ccc(-c4csc(C=O)c4)cc23)c(Cl)cc1Cl	233 to 237
Cc1cccc2c1nc(-c1c(F)cccc1F)n2Cc1c(F)cccc1F	182 to 186
CC1(C)C(=O)Oc2ccc3cc(C(=O)NCC(F)(F)F)c(Cn4cncn4)cc3c21	200 to 201
COc1ccc2c(c1)CCC1C2CCC2(C)C1CCC2N(C=O)CCOCCO (centres undefined)	134 to 135
CCOC(=O)CCCNC(=O)Cn1c(-c2cccc(Cl)c2)nc2cccnc21	127 to 129
CNCCCn1c(-c2ccc(Br)cc2)csc1=Nc1ccccc1	143 to 148
N#Cc1cccnc1N1CCN(CC(=O)Nc2cccc(C(F)(F)F)c2F)CC1	118 to 121
CS(=O)c1ccc(COC(=O)N2CCN(CC3(C)Cn4cc([N+](=O)[O-])nc4O3)CC2)cc1 (centres undefined)	117 to 121
COC(=O)c1c(C)nc(C)c(C(=O)OCC2CCCO2)c1-c1cccc(NC(C)=O)c1 (centres undefined)	196 to 198
COC(=O)c1ccnc(N2CCN(CC3CC3)C2=O)c1	75 to 77
O=C(CCc1ccccc1)c1ccc(Cl)cc1	78 to 79
COC(=O)c1nc(-c2ccc(Cl)c(OC)c2F)nc(N)c1OCC(F)(F)F	123 to 125
Cn1cncc1C1(C(c2cccs2)c2cccs2)CCOC1=O (centres undefined)	80
FC(F)(F)C1(c2ccccc2)c2ccccc2Oc2ccccc21	89 to 90
CCn1c2cc(C(F)(F)F)ccc2c2oc(C(=O)Cl)cc21	124 to 126
COc1ccc(C(=O)c2ccccc2C=O)cc1	90 to 91
CCCCOC(=O)C1CC(n2cnc3c(Cl)ncnc32)C(O)C1O (centres undefined)	104 to 106
CC(Cc1ccc(OCCNC(=O)c2ccc(-c3ccccn3)cc2)cc1)(Oc1ccccc1)C(=O)O (centres undefined)	76 to 79
